Laboratory results from patent US9695155B2, “Herbicidal substituted pyrimidinyloxy benzene compounds” (E. I. DU PONT DE NEMOURS AND COMPANY, priority 2013, dated 2017).

Experiments:
blackgrass = assay: Test D preemergence; format: in vivo, Alopecurus myosuroides; details: Alopecurus myosuroides, pre-emergence, scale 0-100, read-out: Plant response rating, Blackgrass
Summary of the method: (§1)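 Seeds sown in silt loam soil got preemergence sprays; plants in peat/vermiculite potting medium were sprayed postemergence at 2–18 cm (1- to 4-leaf stage). Chemicals were formulated in a non-phytotoxic solvent mixture with surfactant. After 7 to 21 days in a controlled environment, injury was rated visually versus controls, 0 (no effect) to 100 (complete control).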

chickweed = assay: Test D preemergence; format: in vivo, Stellaria media; details: Stellaria media, pre-emergence, scale 0-100, read-out: Plant response rating, Chickweed
Summary of the method: as §1

bromegrass, downy = assay: Test D preemergence; format: in vivo, Bromus tectorum; details: Bromus tectorum, pre-emergence, scale 0-100, read-out: Plant response rating, Bromegrass, Downy
Summary of the method: as §1

Italian ryegrass = assay: Test D preemergence; format: in vivo, Lolium multiflorum; details: Lolium multiflorum, pre-emergence
Summary of the method: as §1

spring barley = assay: Test D preemergence; format: in vivo, Hordeum vulgare; details: Hordeum vulgare, pre-emergence, scale 0-100, read-out: Plant response rating, Barley, Spring
Summary of the method: as §1

winter barley = assay: Test D preemergence; format: in vivo, Hordeum vulgare; details: Hordeum vulgare, pre-emergence, scale 0-100, read-out: Plant response rating, Barley, Winter
Summary of the method: as §1

wild oat = assay: Test D preemergence; format: in vivo, Avena fatua; details: Avena fatua, pre-emergence, scale 0-100, read-out: Plant response rating, Oat, Wild
Summary of the method: as §1

wild radish [1] = assay: Test D preemergence; format: in vivo, Raphanus raphanistrum; details: Raphanus raphanistrum, pre-emergence
Summary of the method: as §1

field poppy = assay: Test D postemergence; format: in vivo, Papaver rhoeas; details: Papaver rhoeas, post-emergence, scale 0 to 100 (0 no effect, 100 complete control), read-out: Plant response rating, Field Poppy
Summary of the method: as §1

wild radish [2] = assay: Test D postemergence; format: in vivo, Raphanus raphanistrum; details: Raphanus raphanistrum, post-emergence, scale 0 to 100 (0 no effect, 100 complete control), read-out: Plant response rating, Radish, Wild
Summary of the method: as §1

windgrass = assay: Test D postemergence; format: in vivo, Apera spica-venti; details: Apera spica-venti, post-emergence, scale 0 to 100 (0 no effect, 100 complete control), read-out: Plant response rating, Windgrass
Summary of the method: as §1

wild poinsettia = assay: Test E postemergence; format: in vivo, Euphorbia heterophylla; details: Euphorbia heterophylla, post-emergence; Postemergence, 250 g ai/ha, scale 0 to 100; read-out: Plant response rating, Poinsettia, Wild
Summary of the method: (§2)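 Test chemicals formulated in a non-phytotoxic solvent mixture containing a surfactant were applied preemergence to seeds in silt loam soil or postemergence to plants at the 1- to 4-leaf stage in potting mix. After 14 to 21 days in a greenhouse, injury was visually rated against controls on a 0-100 scale (0 = no effect, 100 = complete control).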

fall panicum = assay: Test E postemergence; format: in vivo, Panicum dichotomiflorum; details: Panicum dichotomiflorum, post-emergence, read-out: Plant response rating, Panicum, Fall
Summary of the method: as §2

hairy beggarticks = assay: Test E postemergence; format: in vivo, Bidens pilosa; details: Bidens pilosa, post-emergence, read-out: Plant response rating, Beggarticks
Summary of the method: as §2

[3] = Postemergence, 31 g ai/ha, scale 0 to 100
[4] = Postemergence, 62 g ai/ha, scale 0 to 100
[5] = Postemergence, 125 g ai/ha, scale 0 to 100
[6] = Postemergence, 250 g ai/ha, scale 0 to 100
[7] = postemergence, 16 g ai/ha, scale 0 to 100, 0 no effect, 100 complete control

## N#Cc1cccc(Oc2ncc(Cl)cn2)c1-n1cc(C(F)(F)F)cn1 [Compound 58, 3-[(5-chloro-2-pyrimidinyl)oxy]-2-[4-(trifluoromethyl)-1H-pyrazol-1-yl]benzonitrile]
blackgrass; 31 g ai/ha
  pest or weed control at 31 g/ha: 20%
blackgrass; 62 g ai/ha
  pest or weed control at 62 g/ha: 55%
blackgrass; 125 g ai/ha
  pest or weed control at 125 g/ha: 100%
blackgrass; 250 g ai/ha
  pest or weed control at 250 g/ha: 100%
chickweed; 31 g ai/ha
  pest or weed control at 31 g/ha: 100%
chickweed; 62 g ai/ha
  pest or weed control at 62 g/ha: 100%
chickweed; 125 g ai/ha
  pest or weed control at 125 g/ha: 100%
chickweed; 250 g ai/ha
  pest or weed control at 250 g/ha: 100%
bromegrass, downy; 31 g ai/ha
  pest or weed control at 31 g/ha: 10%
bromegrass, downy; 62 g ai/ha
  pest or weed control at 62 g/ha: 15%
bromegrass, downy; 125 g ai/ha
  pest or weed control at 125 g/ha: 35%
bromegrass, downy; 250 g ai/ha
  pest or weed control at 250 g/ha: 75%
Italian ryegrass; 31 g ai/ha, scale 0 (no effect) to 100 (complete control), read-out: Plant response rating, Ryegrass, Italian
  pest or weed control at 31 g/ha: 10%
Italian ryegrass; 62 g ai/ha, scale 0-100, read-out: Plant response rating, Ryegrass, Italian
  pest or weed control at 62 g/ha: 35%
Italian ryegrass; 125 g ai/ha, scale 0-100, read-out: Plant response rating, Ryegrass, Italian
  pest or weed control at 125 g/ha: 100%
Italian ryegrass; 250 g ai/ha, scale 0-100, read-out: Plant response rating, Ryegrass, Italian
  pest or weed control at 250 g/ha: 100%
Spring barley; 31 g ai/ha
  plant injury at 31 g/ha: 10%
Spring barley; 62 g ai/ha
  plant injury at 62 g/ha: 50%
Spring barley; 125 g ai/ha
  plant injury at 125 g/ha: 85%
Spring barley; 250 g ai/ha
  plant injury at 250 g/ha: 100%
Winter barley; 31 g ai/ha
  plant injury at 31 g/ha: 10%
Winter barley; 62 g ai/ha
  plant injury at 62 g/ha: 35%
Winter barley; 125 g ai/ha
  plant injury at 125 g/ha: 80%
Winter barley; 250 g ai/ha
  plant injury at 250 g/ha: 100%
Wild oat; 31 g ai/ha
  pest or weed control at 31 g/ha: 15%
Wild oat; 62 g ai/ha
  pest or weed control at 62 g/ha: 25%
Wild oat; 125 g ai/ha
  pest or weed control at 125 g/ha: 60%
Wild oat; 250 g ai/ha
  pest or weed control at 250 g/ha: 100%
Wild radish [1]; 31 g ai/ha, scale 0 (no effect) to 100 (complete control), read-out: Plant response rating, Radish, Wild
  pest or weed control at 31 g/ha: 100%
Wild radish [1]; 62 g ai/ha, scale 0-100, read-out: Plant response rating, Radish, Wild
  pest or weed control at 62 g/ha: 100%
Wild radish [1]; 125 g ai/ha, scale 0-100, read-out: Plant response rating, Radish, Wild
  pest or weed control at 125 g/ha: 100%
Wild radish [1]; 250 g ai/ha, scale 0-100, read-out: Plant response rating, Radish, Wild
  pest or weed control at 250 g/ha: 100%
Field poppy; 31 g ai/ha
  pest or weed control at 31 g/ha: 80%
Field poppy; 62 g ai/ha
  pest or weed control at 62 g/ha: 85%
Field poppy; 125 g ai/ha
  pest or weed control at 125 g/ha: 100%
Field poppy; 250 g ai/ha
  pest or weed control at 250 g/ha: 100%
Wild radish [2]; 31 g ai/ha
  pest or weed control at 31 g/ha: 65%
Wild radish [2]; 62 g ai/ha
  pest or weed control at 62 g/ha: 70%
Wild radish [2]; 125 g ai/ha
  pest or weed control at 125 g/ha: 90%
Wild radish [2]; 250 g ai/ha
  pest or weed control at 250 g/ha: 95%
windgrass; 31 g ai/ha
  pest or weed control at 31 g/ha: 20%
windgrass; 62 g ai/ha
  pest or weed control at 62 g/ha: 35%
windgrass; 125 g ai/ha
  pest or weed control at 125 g/ha: 55%
windgrass; 250 g ai/ha
  pest or weed control at 250 g/ha: 90%
Wild poinsettia
  pest or weed control at 250 g/ha: 90%
Fall panicum; [3]
  pest or weed control at 31 g/ha: 30%
Fall panicum; [4]
  pest or weed control at 62 g/ha: 40%
Fall panicum; [5]
  pest or weed control at 125 g/ha: 60%
Fall panicum; [6]
  pest or weed control at 250 g/ha: 60%
Fall panicum; [7]
  pest or weed control at 16 g/ha: 20%
Hairy beggarticks; [3]
  pest or weed control at 31 g/ha: 65%
Hairy beggarticks; [4]
  pest or weed control at 62 g/ha: 80%
Hairy beggarticks; [5]
  pest or weed control at 125 g/ha: 90%
Hairy beggarticks; [6]
  pest or weed control at 250 g/ha: 95%
Hairy beggarticks; [7]
  pest or weed control at 16 g/ha: 60%
